# Results: patent US11572399B2, “Long-acting GIP peptide analogues” (University of Copenhagen, priority 2017, dated 2023)
# “And” between values parts separate entries of the source, which are not always exact repeats. Equal entries are not always repeated. Peptide text beside a SMILES is read from it. * marks the point of attachment. C16 diacid = O=C(O)CCCCCCCCCCCCCCC(=O)*
# Tests used:
# [1] = biological target: T1, human GIP receptor (Homo sapiens, UniProt P48546); assay: 125I-human GIP competition binding assay, in the presence and absence of 2% HSA; conditions: for Fold change HSA (2%)/Casein (0.1%): IC50 (plus HSA)/IC50 (minus HSA); for Binding (+/−HSA) Fold: fold change +HSA/−HSA; for IC50: heterologous competition binding, transiently transfected COS-7 cells expressing the human GIP receptor;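 on all read-outs here: nonspecific binding taken as radioligand bound to untransfected cells, IC50 obtained from nonlinear regression fits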
# T1 construct: host or cells: COS-7, transient transfection (calcium phosphate), cDNA in pCMV-Script
# T1 sequence (P48546 22-466): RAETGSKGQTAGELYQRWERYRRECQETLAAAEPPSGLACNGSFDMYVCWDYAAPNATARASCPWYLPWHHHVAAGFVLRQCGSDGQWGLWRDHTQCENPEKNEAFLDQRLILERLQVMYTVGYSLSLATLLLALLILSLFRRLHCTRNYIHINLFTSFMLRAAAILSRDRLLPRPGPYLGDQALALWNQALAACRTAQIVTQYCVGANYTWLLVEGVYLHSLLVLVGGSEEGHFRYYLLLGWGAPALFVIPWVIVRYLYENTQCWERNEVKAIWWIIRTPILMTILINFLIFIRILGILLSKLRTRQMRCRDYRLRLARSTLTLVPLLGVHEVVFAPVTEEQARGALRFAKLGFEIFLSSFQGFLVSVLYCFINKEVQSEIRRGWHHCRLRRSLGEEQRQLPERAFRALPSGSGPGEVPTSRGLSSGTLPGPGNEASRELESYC
# [2] = biological target: T1, human GIP receptor; assay: cAMP accumulation assay, antagonism of a GIP-mediated cAMP response (50-80% of max); format: cell-based; conditions: for Fold change of IC50 versus GIP(5-30)NH2: fold change of IC50 from GIP(5-30)NH2
# Experimental: The day after, the cells were washed twice with Hepes buffered saline (HBS) buffer and incubated with HBS and 1 mM 3-isobutyl-1-methylxanthine (IBMX) for 30 min at 37° C. […] The HitHunter™ cAMP XS assay (DiscoveRx) was carried out according to the manufacturer's instructions.
# [3] = biological target: T1, human GIP receptor; assay: cAMP accumulation assay, agonism (ligand alone); format: cell-based; conditions: Table 1; for Emax: COS-7, intrinsic cAMP activity, COS-7 cells; for EC50: given as log EC50 (negative sign), read-out: cAMP agonism EC50 (log) (converted)
# [4] = transiently transfected COS-7 cells, Table 1 and text, read-out: cAMP antagonism nM (IC50, antagonistic potency)
# [5] = log value of the nM column, read-out: Binding log (converted)
Structure (SMILES),Fold change HSA (2%)/Casein (0.1%) [1],Binding (+/−HSA) Fold [1],Fold change of IC50 versus GIP(5-30)NH2 [2],Emax [3],Ki ([1]; absence of HSA),Ki ([1]; presence of 2% HSA),"IC50 ([2]; antagonism of GIP-mediated cAMP response, COS-7 cells, read-out: cAMP accumulation IC50)","IC50 [2, 4]",EC50 [3],"IC50 [1, 5]",IC50 ([1]; read-out: Binding)
"CC[C@H](C)[C@H](NC(=O)[C@H](CO)NC(=O)[C@H](Cc1ccc(O)cc1)NC(=O)[C@H](CC(=O)O)NC(=O)[C@H](CO)NC(=O)[C@@H](NC(=O)[C@H](Cc1ccccc1)NC(=O)[C@@H](N)[C@@H](C)O)[C@@H](C)CC)C(=O)N[C@@H](C)C(=O)N[C@@H](CCSC)C(=O)N[C@@H](CC(=O)O)C(=O)N[C@@H](CCCCN)C(=O)N[C@H](C(=O)N[C@@H](Cc1c[nH]cn1)C(=O)N[C@@H](CCC(N)=O)C(=O)N[C@@H](CCC(N)=O)C(=O)N[C@@H](CC(=O)O)C(=O)N[C@@H](Cc1ccccc1)C(=O)N[C@@H](CCCCNC(=O)CCCCCCCCCCCCCCC(=O)O)C(=O)N[C@@H](CC(N)=O)C(=O)N[C@@H](Cc1c[nH]c2ccccc12)C(=O)N[C@@H](CC(C)C)C(=O)N[C@@H](CC(C)C)C(=O)N[C@@H](C)C(=O)N[C@@H](CCC(N)=O)C(=O)N[C@@H](CCCCN)C(N)=O)[C@@H](C)CC [AT183, [hGIP(5-30)NH2[V23K]-C16diacid/23]] (H-TFISDYSIAMDKIHQQDFK(C16 diacid)NWLLAQK-NH2; N-terminus assumed)",1.8,4.4,55.0,0%,,,,,,,
"CC[C@H](C)[C@H](NC(=O)[C@H](CO)NC(=O)[C@H](Cc1ccc(O)cc1)NC(=O)[C@H](CC(=O)O)NC(=O)[C@H](CO)NC(=O)[C@@H](NC(=O)[C@H](Cc1ccccc1)NC(=O)[C@@H](N)[C@@H](C)O)[C@@H](C)CC)C(=O)N[C@@H](C)C(=O)N[C@@H](CCSC)C(=O)N[C@@H](CC(=O)O)C(=O)N[C@@H](CCCCN)C(=O)N[C@H](C(=O)N[C@@H](Cc1c[nH]cn1)C(=O)N[C@@H](CCC(N)=O)C(=O)N[C@@H](CCC(N)=O)C(=O)N[C@@H](CC(=O)O)C(=O)N[C@@H](Cc1ccccc1)C(=O)N[C@H](C(=O)N[C@@H](CCCCNC(=O)CCCCCCCCCCCCCCC(=O)O)C(=O)N[C@@H](Cc1c[nH]c2ccccc12)C(=O)N[C@@H](CC(C)C)C(=O)N[C@@H](CC(C)C)C(=O)N[C@@H](C)C(=O)N[C@@H](CCC(N)=O)C(=O)N[C@@H](CCCCN)C(N)=O)C(C)C)[C@@H](C)CC [AT184, [hGIP(5-30)NH2[N24K]-C16diacid/24]] (H-TFISDYSIAMDKIHQQDFVK(C16 diacid)WLLAQK-NH2; N-terminus assumed)",1.6,3.9,3.9,0%,224 nM,,,,,,
"CC[C@H](C)[C@H](NC(=O)[C@H](CO)NC(=O)[C@H](Cc1ccc(O)cc1)NC(=O)[C@H](CC(=O)O)NC(=O)[C@H](CO)NC(=O)[C@@H](NC(=O)[C@H](Cc1ccccc1)NC(=O)[C@@H](N)[C@@H](C)O)[C@@H](C)CC)C(=O)N[C@@H](C)C(=O)N[C@@H](CCSC)C(=O)N[C@@H](CC(=O)O)C(=O)N[C@@H](CCCCN)C(=O)N[C@H](C(=O)N[C@@H](Cc1c[nH]cn1)C(=O)N[C@@H](CCC(N)=O)C(=O)N[C@@H](CCC(N)=O)C(=O)N[C@@H](CC(=O)O)C(=O)N[C@@H](Cc1ccccc1)C(=O)N[C@H](C(=O)N[C@@H](CC(N)=O)C(=O)N[C@@H](CCCCNC(=O)CCCCCCCCCCCCCCC(=O)O)C(=O)N[C@@H](CC(C)C)C(=O)N[C@@H](CC(C)C)C(=O)N[C@@H](C)C(=O)N[C@@H](CCC(N)=O)C(=O)N[C@@H](CCCCN)C(N)=O)C(C)C)[C@@H](C)CC [AT185, [hGIP(5-30)NH2[W25K]-C16diacid/25]] (H-TFISDYSIAMDKIHQQDFVNK(C16 diacid)LLAQK-NH2; N-terminus assumed)",4.7,5.0,2.4,18%,,337 nM,66.1 nM,44 nM,100 nM,,
"CC[C@H](C)[C@H](NC(=O)[C@H](CO)NC(=O)[C@H](Cc1ccc(O)cc1)NC(=O)[C@H](CC(=O)O)NC(=O)[C@H](CO)NC(=O)[C@@H](NC(=O)[C@H](Cc1ccccc1)NC(=O)[C@@H](N)[C@@H](C)O)[C@@H](C)CC)C(=O)N[C@@H](C)C(=O)N[C@@H](CCSC)C(=O)N[C@@H](CC(=O)O)C(=O)N[C@@H](CCCCN)C(=O)N[C@H](C(=O)N[C@@H](Cc1c[nH]cn1)C(=O)N[C@@H](CCC(N)=O)C(=O)N[C@@H](CCC(N)=O)C(=O)N[C@@H](CC(=O)O)C(=O)N[C@@H](Cc1ccccc1)C(=O)N[C@H](C(=O)N[C@@H](CC(N)=O)C(=O)N[C@@H](Cc1c[nH]c2ccccc12)C(=O)N[C@@H](CCCCNC(=O)CCCCCCCCCCCCCCC(=O)O)C(=O)N[C@@H](CC(C)C)C(=O)N[C@@H](C)C(=O)N[C@@H](CCC(N)=O)C(=O)N[C@@H](CCCCN)C(N)=O)C(C)C)[C@@H](C)CC [AT186, [hGIP(5-30)NH2[L26K]-C16diacid/26]] (H-TFISDYSIAMDKIHQQDFVNWK(C16 diacid)LAQK-NH2; N-terminus assumed)",3.8,7.9,2.6,0%,105 nM,,,79 nM,,158 nM and 144 nM,
"CC[C@H](C)[C@H](NC(=O)[C@H](CO)NC(=O)[C@H](Cc1ccc(O)cc1)NC(=O)[C@H](CC(=O)O)NC(=O)[C@H](CO)NC(=O)[C@@H](NC(=O)[C@H](Cc1ccccc1)NC(=O)[C@@H](N)[C@@H](C)O)[C@@H](C)CC)C(=O)N[C@@H](C)C(=O)N[C@@H](CCSC)C(=O)N[C@@H](CC(=O)O)C(=O)N[C@@H](CCCCN)C(=O)N[C@H](C(=O)N[C@@H](Cc1c[nH]cn1)C(=O)N[C@@H](CCC(N)=O)C(=O)N[C@@H](CCC(N)=O)C(=O)N[C@@H](CC(=O)O)C(=O)N[C@@H](Cc1ccccc1)C(=O)N[C@H](C(=O)N[C@@H](CC(N)=O)C(=O)N[C@@H](Cc1c[nH]c2ccccc12)C(=O)N[C@@H](CC(C)C)C(=O)N[C@@H](CCCCNC(=O)CCCCCCCCCCCCCCC(=O)O)C(=O)N[C@@H](C)C(=O)N[C@@H](CCC(N)=O)C(=O)N[C@@H](CCCCN)C(N)=O)C(C)C)[C@@H](C)CC [AT187, [hGIP(5-30)NH2[L27K]-C16diacid/27]] (H-TFISDYSIAMDKIHQQDFVNWLK(C16 diacid)AQK-NH2; N-terminus assumed)",4.7,18.2,67.6,25%,,,,2380 nM,1000 nM and 2510 nM,,26500 nM
"CC[C@H](C)[C@H](NC(=O)[C@H](CO)NC(=O)[C@H](Cc1ccc(O)cc1)NC(=O)[C@H](CC(=O)O)NC(=O)[C@H](CO)NC(=O)[C@@H](NC(=O)[C@H](Cc1ccccc1)NC(=O)[C@@H](N)[C@@H](C)O)[C@@H](C)CC)C(=O)N[C@@H](C)C(=O)N[C@@H](CCSC)C(=O)N[C@@H](CC(=O)O)C(=O)N[C@@H](CCCCN)C(=O)N[C@H](C(=O)N[C@@H](Cc1c[nH]cn1)C(=O)N[C@@H](CCC(N)=O)C(=O)N[C@@H](CCC(N)=O)C(=O)N[C@@H](CC(=O)O)C(=O)N[C@@H](Cc1ccccc1)C(=O)N[C@H](C(=O)N[C@@H](CC(N)=O)C(=O)N[C@@H](Cc1c[nH]c2ccccc12)C(=O)N[C@@H](CC(C)C)C(=O)N[C@@H](CC(C)C)C(=O)N[C@@H](CCCCNC(=O)CCCCCCCCCCCCCCC(=O)O)C(=O)N[C@@H](CCC(N)=O)C(=O)N[C@@H](CCCCN)C(N)=O)C(C)C)[C@@H](C)CC [AT188, [hGIP(5-30)NH2[A28K]-C16diacid/28]] (H-TFISDYSIAMDKIHQQDFVNWLLK(C16 diacid)QK-NH2; N-terminus assumed)",0.0,3.2,6.8,10%,144 nM,,,152 nM,100 nM and 158 nM,200 nM and 183 nM,
"CC[C@H](C)[C@H](NC(=O)[C@H](CO)NC(=O)[C@H](Cc1ccc(O)cc1)NC(=O)[C@H](CC(=O)O)NC(=O)[C@H](CO)NC(=O)[C@@H](NC(=O)[C@H](Cc1ccccc1)NC(=O)[C@@H](N)[C@@H](C)O)[C@@H](C)CC)C(=O)N[C@@H](C)C(=O)N[C@@H](CCSC)C(=O)N[C@@H](CC(=O)O)C(=O)N[C@@H](CCCCN)C(=O)N[C@H](C(=O)N[C@@H](Cc1c[nH]cn1)C(=O)N[C@@H](CCC(N)=O)C(=O)N[C@@H](CCC(N)=O)C(=O)N[C@@H](CC(=O)O)C(=O)N[C@@H](Cc1ccccc1)C(=O)N[C@H](C(=O)N[C@@H](CC(N)=O)C(=O)N[C@@H](Cc1c[nH]c2ccccc12)C(=O)N[C@@H](CC(C)C)C(=O)N[C@@H](CC(C)C)C(=O)N[C@@H](C)C(=O)N[C@@H](CCCCNC(=O)CCCCCCCCCCCCCCC(=O)O)C(=O)N[C@@H](CCCCN)C(N)=O)C(C)C)[C@@H](C)CC [AT189, [hGIP(5-30)NH2[Q29K]-C16diacid/29]] (H-TFISDYSIAMDKIHQQDFVNWLLAK(C16 diacid)K-NH2; N-terminus assumed)",3.2,3.2,3.0,12%,,,,79 nM,100 nM and 79.4 nM,126 nM and 118 nM,
